PubChem BioAssay (NCI)
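96-well plates; 48 h exposure; 5 concentrations. Endpoints by linear interpolation between flanking doses. Not reached: highest tested concentration assigned. Abbreviation: GI50, concentration required for 50% inhibition of growth. TGI: concentration producing complete growth inhibition.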

The compounds below were run on BT-549 breast (assay: NCI-60 cell line screen, 48 h).

Compound	TGI	GI50
N#CC1(C2SCCS2=O)C2=C(C(=O)c3ccccc3C2=O)N2CCCC21 (stereo not given)	4.3 µM	–
Cc1n(Cc2ccc3ccccc3c2)cc[n+]1Cc1ccc2ccccc2c1	3.01 µM	0.929 µM
O=C(O)Cc1c(O)ccc2ccccc12	> 100 µM	–
O=C1/C(=C\c2cccn2Cc2ccccc2)c2ccccc2N1c1c(Cl)cccc1Cl	> 100 µM	> 100 µM
Cc1sc2nc(NCCc3c[nH]c4ccc(Cl)cc34)[nH]c(=O)c2c1C	9.95 µM	2.55 µM
CSC1(CC(=O)N(C)C)C(=O)Nc2ccccc21 (stereo not given)	> 100 µM	–
O=C(O)c1c(-c2nccc3ccccc23)[nH]c(-c2ccccc2)c1S(=O)(=O)O	> 100 µM	–
COc1ccc(/C=c2/sc3n(c2=O)C(c2ccc(OC)c(OC)c2)C2=C(N=3)c3cc(F)ccc3OC2)cc1 (stereo not given)	> 100 µM	46.2 µM
O=C(O)c1cc(O)c2c(c1)C(C1c3cc(C(=O)O)cc(O)c3C(=O)c3c(OC4OC(CO)C(O)C(O)C4O)cccc31)c1cccc(OC3OC(CO)C(O)C(O)C3O)c1C2=O (stereo not given)	> 100 µM	> 100 µM
O=C(CN(C1CCCCC1)C1CCCCC1)Nc1ccc(S(=O)(=O)c2ccc(NC(=O)CN(C3CCCCC3)C3CCCCC3)cc2)cc1	1.91 µM	0.506 µM
Cc1c[n+](Cc2ccc3ccccc3c2)cn1Cc1ccc2ccccc2c1	3.12 µM	1.56 µM
Nc1nc(Br)nc2c1ncn2C1CC(O)C(CO)O1 (stereo not given)	> 100 µM	3.52 µM
Nc1nc(Nc2ccccc2)c2ncn(Cc3cc4c(cc3Br)OCO4)c2n1	2.33 µM	0.0511 µM
CCOC(=O)N1CCN(C(=O)c2ccc(C(F)(F)F)nc2Nc2cc(Cl)ccc2C)CC1	73.2 µM	19.2 µM
Cc1ccc(Nc2nc(N)c(C(=O)c3ccc(C#N)cc3)s2)cc1	> 60.9 µM	0.475 µM
O=C1c2ccn(CCCCNC(CO)(CO)CO)c2C(=O)c2c1c(O)c1ccccc1c2O	69.9 µM	22.7 µM
COc1ccc(-c2cc(-c3cccn3C)c(C#N)c(N)n2)cc1OC	> 100 µM	64 µM
CN1CCc2c(Sc3ccc(C(=O)NO)cc3)c3ccccc3n2C1	6.19 µM	2.39 µM
COc1ccc(CNc2c3ccccc3nc3ccccc23)cc1OC	12.2 µM	3.15 µM
CN(C)c1ccc2nc3ccc(=O)cc-3sc2c1	> 100 µM	0.712 µM
CC(=O)c1c(CBr)n([O-])c2ccccc2[n+]1=O	21.5 µM	9.61 µM
c1ccc2c3ccn4cc5c(cc4c-3nc2c1)CCCC5	59.6 µM	11.3 µM
OCCCCC#Cc1ccccc1C#Cc1cccc(O)c1	42.1 µM	16 µM
O=C(N/N=C\c1cc(Br)ccc1O)c1ccncc1	40.8 µM	2.57 µM
COc1ccccc1/C=C/c1cnccn1	> 10 µM	–
CCN(CC)CC(C)(C)C(=O)/C=C/c1ccc(Cl)c(Cl)c1	3.12 µM	1.72 µM
COc1cc2c(cc1OC)C13CCN4CC5=CCOC6CC(=O)N2C1C6C5CC43O (stereo not given)	> 100 µM	–
CN(C)Cc1c[nH]c2c1C(=O)c1c(c(O)c3ccccc3c1O)C2=O	26.5 µM	13.7 µM

These compounds were tested on HS 578T breast (assay: NCI-60 cell line screen, 48 h).

Compound	TGI	GI50
N#CC1(C2SCCS2=O)C2=C(C(=O)c3ccccc3C2=O)N2CCCC21 (stereo not given)	12.8 µM	–
Cc1n(Cc2ccc3ccccc3c2)cc[n+]1Cc1ccc2ccccc2c1	11.3 µM	1.6 µM
O=C(O)Cc1c(O)ccc2ccccc12	> 100 µM	–
O=C1/C(=C\c2cccn2Cc2ccccc2)c2ccccc2N1c1c(Cl)cccc1Cl	> 100 µM	> 100 µM
Cc1sc2nc(NCCc3c[nH]c4ccc(Cl)cc34)[nH]c(=O)c2c1C	6.25 µM	1.86 µM
CSC1(CC(=O)N(C)C)C(=O)Nc2ccccc21 (stereo not given)	> 100 µM	–
O=C(O)c1c(-c2nccc3ccccc23)[nH]c(-c2ccccc2)c1S(=O)(=O)O	> 100 µM	–
COc1ccc(/C=c2/sc3n(c2=O)C(c2ccc(OC)c(OC)c2)C2=C(N=3)c3cc(F)ccc3OC2)cc1 (stereo not given)	> 87.5 µM	27 µM
O=C(O)c1cc(O)c2c(c1)C(C1c3cc(C(=O)O)cc(O)c3C(=O)c3c(OC4OC(CO)C(O)C(O)C4O)cccc31)c1cccc(OC3OC(CO)C(O)C(O)C3O)c1C2=O (stereo not given)	> 100 µM	> 100 µM
O=C(CN(C1CCCCC1)C1CCCCC1)Nc1ccc(S(=O)(=O)c2ccc(NC(=O)CN(C3CCCCC3)C3CCCCC3)cc2)cc1	6.9 µM	1.03 µM
Cc1c[n+](Cc2ccc3ccccc3c2)cn1Cc1ccc2ccccc2c1	6.65 µM	2.22 µM
Nc1nc(Br)nc2c1ncn2C1CC(O)C(CO)O1 (stereo not given)	> 100 µM	> 93.3 µM
Nc1nc(Nc2ccccc2)c2ncn(Cc3cc4c(cc3Br)OCO4)c2n1	> 94.9 µM	0.075 µM
CCOC(=O)N1CCN(C(=O)c2ccc(C(F)(F)F)nc2Nc2cc(Cl)ccc2C)CC1	91.2 µM	23.9 µM
Cc1ccc(Nc2nc(N)c(C(=O)c3ccc(C#N)cc3)s2)cc1	> 100 µM	0.546 µM
O=C1c2ccn(CCCCNC(CO)(CO)CO)c2C(=O)c2c1c(O)c1ccccc1c2O	> 75 µM	11.5 µM
COc1ccc(-c2cc(-c3cccn3C)c(C#N)c(N)n2)cc1OC	> 100 µM	> 100 µM
CN1CCc2c(Sc3ccc(C(=O)NO)cc3)c3ccccc3n2C1	27 µM	2.64 µM
COc1ccc(CNc2c3ccccc3nc3ccccc23)cc1OC	10.1 µM	2.64 µM
CN(C)c1ccc2nc3ccc(=O)cc-3sc2c1	> 100 µM	7.12 µM
CC(=O)c1c(CBr)n([O-])c2ccccc2[n+]1=O	48.8 µM	17.4 µM
c1ccc2c3ccn4cc5c(cc4c-3nc2c1)CCCC5	21.5 µM	3.01 µM
OCCCCC#Cc1ccccc1C#Cc1cccc(O)c1	94.7 µM	31.2 µM
O=C(N/N=C\c1cc(Br)ccc1O)c1ccncc1	> 100 µM	13.4 µM
COc1ccccc1/C=C/c1cnccn1	> 10 µM	–
CCN(CC)CC(C)(C)C(=O)/C=C/c1ccc(Cl)c(Cl)c1	5.94 µM	2.45 µM
COc1cc2c(cc1OC)C13CCN4CC5=CCOC6CC(=O)N2C1C6C5CC43O (stereo not given)	> 100 µM	–
CN(C)Cc1c[nH]c2c1C(=O)c1c(c(O)c3ccccc3c1O)C2=O	26.7 µM	10.9 µM

Each compound was assayed on SF-268 CNS (assay: NCI-60 cell line screen, 48 h).

Compound	TGI	GI50
N#CC1(C2SCCS2=O)C2=C(C(=O)c3ccccc3C2=O)N2CCCC21 (stereo not given)	11.2 µM	–
Cc1n(Cc2ccc3ccccc3c2)cc[n+]1Cc1ccc2ccccc2c1	8.69 µM	1.14 µM
O=C(O)Cc1c(O)ccc2ccccc12	> 100 µM	–
O=C1/C(=C\c2cccn2Cc2ccccc2)c2ccccc2N1c1c(Cl)cccc1Cl	> 100 µM	> 100 µM
Cc1sc2nc(NCCc3c[nH]c4ccc(Cl)cc34)[nH]c(=O)c2c1C	8.13 µM	2.28 µM
CSC1(CC(=O)N(C)C)C(=O)Nc2ccccc21 (stereo not given)	> 100 µM	–
O=C(O)c1c(-c2nccc3ccccc23)[nH]c(-c2ccccc2)c1S(=O)(=O)O	> 100 µM	–
COc1ccc(/C=c2/sc3n(c2=O)C(c2ccc(OC)c(OC)c2)C2=C(N=3)c3cc(F)ccc3OC2)cc1 (stereo not given)	> 100 µM	15.5 µM
O=C(O)c1cc(O)c2c(c1)C(C1c3cc(C(=O)O)cc(O)c3C(=O)c3c(OC4OC(CO)C(O)C(O)C4O)cccc31)c1cccc(OC3OC(CO)C(O)C(O)C3O)c1C2=O (stereo not given)	> 100 µM	> 100 µM
O=C(CN(C1CCCCC1)C1CCCCC1)Nc1ccc(S(=O)(=O)c2ccc(NC(=O)CN(C3CCCCC3)C3CCCCC3)cc2)cc1	1.6 µM	0.337 µM
Cc1c[n+](Cc2ccc3ccccc3c2)cn1Cc1ccc2ccccc2c1	2.88 µM	1.36 µM
Nc1nc(Br)nc2c1ncn2C1CC(O)C(CO)O1 (stereo not given)	> 100 µM	99.8 µM
